Reference: patent US11440913B2, “Aminoimidazopyridazines as kinase inhibitors” (BRISTOL-MYERS SQUIBB COMPANY, priority 2017, dated 2022)
pIC50: −log10 of the molar value. Counter-ions that a name gives are not always drawn. Like-named read-outs stand apart in the source and are kept apart here.

Key:
[1] = system: MLKL phosphorylation in HT29-L23 human colorectal adenocarcinoma cells; assay: MLKL Phosphorylation High-Content Assay; format: cell-based; conditions: 6 h, necroptosis induced with TNFα, SMAC mimetic and Z-VAD, read-out: pMLKL (IC50)
Procedure, shortened: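 HT29-L23 cells pretreated 30 min at 37 °C with compound (6.25 to 0.106 μM final), then necroptosis induced with TNFα 35 ng/mL, SMAC mimetic 700 nM and Z-VAD 140 nM for 6 h. Fixed cells immunostained for MLKL pS358 and imaged; IC50 and Ymax from 4-parameter logistic fit.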

[2] = molecular target: His-GST-TVMV-hRIPK1(1-324) (Homo sapiens (Human), UniProt Q13546); assay: RIPK1 HTRF Binding Assay; conditions: HTRF binding, 1 h at rt; read-out: RIPK1 (IC50)
Procedure, shortened: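 HTRF probe-displacement binding: 1 nM His-GST-TVMV-hRIPK1(1-324) (baculovirus construct), 90.6 nM probe, 0.2 nM anti-GST-Tb in 20 mM HEPES, 10 mM MgCl2, 0.015% Brij-35, 4 mM DTT, 0.05 mg/mL BSA. Incubated 1 h at rt; FRET 520/495 nm ratio, inhibition relative to DMSO-only wells.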

His-GST-TVMV-hRIPK1(1-324), sequence (Q13546 1-324): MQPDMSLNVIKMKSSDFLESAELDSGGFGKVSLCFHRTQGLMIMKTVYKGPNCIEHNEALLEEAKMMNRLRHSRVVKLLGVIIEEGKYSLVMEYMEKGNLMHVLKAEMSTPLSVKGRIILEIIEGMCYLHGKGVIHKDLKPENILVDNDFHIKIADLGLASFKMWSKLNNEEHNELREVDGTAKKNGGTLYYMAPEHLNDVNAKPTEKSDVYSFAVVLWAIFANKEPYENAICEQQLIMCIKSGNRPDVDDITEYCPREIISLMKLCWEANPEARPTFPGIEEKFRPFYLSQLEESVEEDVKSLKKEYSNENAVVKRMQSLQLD

CC(=O)Nc1nc2ccc(-c3cnc(C)c(C(=O)NCc4cc(C(F)(F)F)ccc4F)c3)nn2c1C [Example 252, 5-{2-acetamido-3-methylimidazo[1,2-b]pyridazin-6-yl}-N-{[2-fluoro-5-(trifluoromethyl)phenyl]methyl}-2-methylpyridine-3-carboxamide]
pIC50 ([1]; Homo sapiens): 6.88 | pIC50 [2]: 7.57

CC(=O)Nc1nc2ccc(-c3cnc(C)c(C(=O)NCc4cc(OC(F)(F)F)ccc4F)c3)nn2c1C [Example 253, 5-{2-acetamido-3-methylimidazo[1,2-b]pyridazin-6-yl}-N-{[2-fluoro-5-(trifluoromethoxy)phenyl]methyl}-2-methylpyridine-3-carboxamide]
pIC50 ([1]; Homo sapiens): 7.28 | pIC50 [2]: 7.85

COc1ncc(-c2ccc3nc(NC(C)=O)c(C)n3n2)cc1C(=O)NCc1cc(C(F)(F)F)ccc1F [Example 254, 5-{2-acetamido-3-methylimidazo[1,2-b]pyridazin-6-yl}-N-{[2-fluoro-5-(trifluoromethyl)phenyl]methyl}-2-methoxypyridine-3-carboxamide]
pIC50 ([1]; Homo sapiens): 7.18 | pIC50 [2]: 7.00

COc1ncc(-c2ccc3nc(NC(C)=O)c(C)n3n2)cc1C(=O)NCc1ccc(F)c(OC(F)(F)F)c1 [Example 255, 5-{2-acetamido-3-methylimidazo[1,2-b]pyridazin-6-yl}-N-{[4-fluoro-3-(trifluoromethoxy)phenyl]methyl}-2-methoxypyridine-3-carboxamide]
pIC50 ([1]; Homo sapiens): 6.58 | pIC50 [2]: 7.06

COc1ncc(-c2ccc3nc(NC(C)=O)c(C)n3n2)cc1C(=O)NCCC(C)c1ccccc1 (centres unmarked) [Example 256, 5-{2-acetamido-3-methylimidazo[1,2-b]pyridazin-6-yl}-2-methoxy-N-(3-phenylbutyl)pyridine-3-carboxamide, TFA]
pIC50 ([1]; Homo sapiens): 7.57 | pIC50 [2]: 8.05

COc1ncc(-c2ccc3nc(NC(C)=O)c(C)n3n2)cc1C(=O)NCc1cccc(OC(F)(F)F)c1 [Example 257, 5-{2-acetamido-3-methylimidazo[1,2-b]pyridazin-6-yl}-2-methoxy-N-{[3-(trifluoromethoxy)phenyl]methyl}pyridine-3-carboxamide, TFA]
pIC50 ([1]; Homo sapiens): 7.16 | pIC50 [2]: 7.21

COc1ncc(-c2ccc3nc(NC(C)=O)c(C)n3n2)cc1C(=O)NCc1ccccc1OC(F)(F)F [Example 258, 5-{2-acetamido-3-methylimidazo[1,2-b]pyridazin-6-yl}-2-methoxy-N-{[2-(trifluoromethoxy)phenyl]methyl}pyridine-3-carboxamide, TFA]
pIC50 ([1]; Homo sapiens): 7.24 | pIC50 [2]: 7.14

[2H]C([2H])(Oc1c(F)cc(F)cc1CNC(=O)c1cc(-c2ccc3nc(NC(C)=O)c(C)n3n2)cnc1OC)C1CC1 [Example 259, N-({2-[cyclopropyl(deutero)methoxy]-3,5-difluorophenyl}methyl)-5-{2-acetamido-3-methylimidazo[1,2-b]pyridazin-6-yl}-2-methoxypyridine-3-carboxamide]
pIC50 ([1]; Homo sapiens): 7.89 | pIC50 [2]: 8.52

COCC(=O)Nc1cn2nc(-c3cnc(OC)c(C(=O)NCc4cc(OCC5CC5)ccc4F)c3)ccc2n1 [Example 260, N-{[5-(cyclopropylmethoxy)-2-fluorophenyl]methyl}-2-methoxy-5-[2-(2-methoxyacetamido)imidazo[1,2-b]pyridazin-6-yl]pyridine-3-carboxamide]
pIC50 ([1]; Homo sapiens): 7.10 | pIC50 [2]: 7.74

COCC(=O)Nc1cn2nc(-c3cnc(OC)c(C(=O)NCc4cc(F)cc(F)c4OCC4CC4)c3)ccc2n1 [Example 261, N-{[2-(cyclopropylmethoxy)-3,5-difluorophenyl]methyl}-2-methoxy-5-[2-(2-methoxyacetamido)imidazo[1,2-b]pyridazin-6-yl]pyridine-3-carboxamide, TFA]
pIC50 [1]: 8.10 | pIC50 [2]: 8.15

COCC(=O)Nc1cn2nc(-c3cnc(OC)c(C(=O)NCc4cc(OC(F)(F)F)ccc4F)c3)ccc2n1 [Example 262, N-{[2-fluoro-5-(trifluoromethoxy)phenyl]methyl}-2-methoxy-5-[2-(2-methoxyacetamido)imidazo[1,2-b]pyridazin-6-yl]pyridine-3-carboxamide]
pIC50 ([1]; Homo sapiens): 7.13 | pIC50 [2]: 7.41

COc1ncc(-c2ccc3nc(NC(=O)C(C)C)cn3n2)cc1C(=O)NCc1ccccc1OC(F)(F)F [Example 263, 2-methoxy-5-[2-(2-methylpropanamido)imidazo[1,2-b]pyridazin-6-yl]-N-{[2-(trifluoromethoxy)phenyl]-methyl}pyridine-3-carboxamide]
pIC50 ([1]; Homo sapiens): 7.42 | pIC50 [2]: 6.97

COc1ncc(-c2ccc3nc(NC(=O)C(C)C)cn3n2)cc1C(=O)NCc1ccc(F)c(F)c1OCC1CC1 [Example 264, N-{[2-(cyclopropylmethoxy)-3,4-difluorophenyl]methyl}-2-methoxy-5-[2-(2-methylpropanamido)imidazo[1,2-b]pyridazin-6-yl]pyridine-3-carboxamide, TFA]
pIC50 [1]: 6.62 | pIC50 [2]: 7.26

COc1ncc(-c2ccc3nc(NC(=O)C(C)C)cn3n2)cc1C(=O)NCc1cc(F)cc(F)c1OC1CCOCC1 [Example 265, N-{[3,5-difluoro-2-(oxan-4-yloxy)phenyl]methyl}-2-methoxy-5-[2-(2-methylpropanamido)imidazo[1,2-b]pyridazin-6-yl]pyridine-3-carboxamide]
pIC50 ([1]; Homo sapiens): 8.15 | pIC50 [2]: 8.52

[2H]C([2H])(Oc1c(F)cc(F)cc1CNC(=O)c1cc(-c2ccc3nc(NC(C)=O)cn3n2)cnc1Cl)C1CC1 [Example 266, 2-chloro-N-({2-[cyclopropyl(deutero)methoxy]-3,5-difluorophenyl}methyl)-5-{2-acetamidoimidazo[1,2-b]pyridazin-6-yl}pyridine-3-carboxamide, TFA]
pIC50 ([1]; Homo sapiens): 7.74 | pIC50 [2]: 8.52

CC(=O)Nc1cn2nc(-c3cnc(Cl)c(C(=O)NCC[C@H](O)c4ccc(Cl)cc4)c3)ccc2n1 [Example 267, 2-chloro-N-[(3S)-3-(4-chlorophenyl)-3-hydroxypropyl]-5-{2-acetamidoimidazo[1,2-b]pyridazin-6-yl}pyridine-3-carboxamide]
pIC50 ([1]; Homo sapiens): 6.42 | pIC50 [2]: 7.09

CC(=O)Nc1cn2nc(-c3cnc(Cl)c(C(=O)NC(C)c4ccccc4OC(F)(F)F)c3)ccc2n1 (centres unmarked) [Example 268, 2-chloro-5-{2-acetamidoimidazo[1,2-b]pyridazin-6-yl}-N-{1-[2-(trifluoromethoxy)phenyl]ethyl}pyridine-3-carboxamide]
pIC50 ([1]; Homo sapiens): 7.14 | pIC50 [2]: 7.34

CC(=O)Nc1cn2nc(-c3cnc(Cl)c(C(=O)NC(C)c4cc(C(F)(F)F)ccc4F)c3)ccc2n1 (centres unmarked) [Example 269, 2-chloro-5-{2-acetamidoimidazo[1,2-b]pyridazin-6-yl}-N-{1-[2-fluoro-5-(trifluoromethyl)phenyl]ethyl}pyridine-3-carboxamide]
pIC50 ([1]; Homo sapiens): 6.68 | pIC50 [2]: 7.26

CC(=O)Nc1cn2nc(-c3cnc(Cl)c(C(=O)NC(C)c4cc(C(F)(F)F)ccc4F)c3)ccc2n1 (centres unmarked) [Example 270, 2-chloro-5-{2-acetamidoimidazo[1,2-b]pyridazin-6-yl}-N-{1-[2-fluoro-5-(trifluoromethyl)phenyl]ethyl}pyridine-3-carboxamide]
pIC50 [1]: 6.69 | pIC50 [2]: 7.64

CC(=O)Nc1cn2nc(-c3cnc(Cl)c(C(=O)NC(C)c4ccccc4OC(F)(F)F)c3)ccc2n1 (centres unmarked) [Example 271, 2-chloro-5-{2-acetamidoimidazo[1,2-b]pyridazin-6-yl}-N-{1-[2-(trifluoromethoxy)phenyl]ethyl}pyridine-3-carboxamide]
pIC50 [1]: 6.89 | pIC50 [2]: 7.31

CC(=O)Nc1cn2nc(-c3cnc(Cl)c(C(=O)NCc4cccc(OC(F)(F)F)c4)c3)ccc2n1 [Example 272, 2-chloro-5-{2-acetamidoimidazo[1,2-b]pyridazin-6-yl}-N-{[3-(trifluoromethoxy)phenyl]methyl}pyridine-3-carboxamide, TFA]
pIC50 [1]: 6.91 | pIC50 [2]: 7.59

CC(=O)Nc1cn2nc(-c3cnc(Cl)c(C(=O)NCc4cc(F)cc(F)c4OC(C)C4CCC4)c3)ccc2n1 (centres unmarked) [Example 273, 2-chloro-N-{[2-(1-cyclobutylethoxy)-3,5-difluorophenyl]methyl}-5-{2-acetamidoimidazo[1,2-b]pyridazin-6-yl}pyridine-3-carboxamide, TFA]
pIC50 ([1]; Homo sapiens): 7.37 | pIC50 [2]: 8.40

CC(=O)Nc1cn2nc(-c3cnc(Cl)c(C(=O)NCc4cc(C(F)(F)F)ccc4Cl)c3)ccc2n1 [Example 274, 2-chloro-N-{[2-chloro-5-(trifluoromethyl)phenyl]methyl}-5-{2-acetamidoimidazo[1,2-b]pyridazin-6-yl}pyridine-3-carboxamide, TFA]
pIC50 ([1]; Homo sapiens): 7.51 | pIC50 [2]: 7.96

CC(=O)Nc1cn2nc(-c3cnc(Cl)c(C(=O)NCc4cc(C(F)(F)F)ccc4F)c3)ccc2n1 [Example 275, 2-chloro-5-{2-acetamidoimidazo[1,2-b]pyridazin-6-yl}-N-{[2-fluoro-5-(trifluoromethyl)phenyl]methyl}pyridine-3-carboxamide]
pIC50 [1]: 7.28 | pIC50 [2]: 7.49

COc1nc(C)c(-c2ccc3nc(NC(C)=O)cn3n2)cc1C(=O)NC(C)c1cc(C(F)(F)F)ccc1F (centres unmarked) [Example 276, 5-{2-acetamidoimidazo[1,2-b]pyridazin-6-yl}-N-{1-[2-fluoro-5-(trifluoromethyl)phenyl]ethyl}-2-methoxy-6-methylpyridine-3-carboxamide]
pIC50 [1]: 7.41 | pIC50 [2]: 7.55
